We go through 2 compounds from ChEMBL document CHEMBL3881531, “ANT2 inhibitor compounds and methods of use thereof” (2009).

Data set [1] deals with T1, ADP/ATP translocase 2 (Homo sapiens) (UniProt P05141).
T1 sequence (whole entry): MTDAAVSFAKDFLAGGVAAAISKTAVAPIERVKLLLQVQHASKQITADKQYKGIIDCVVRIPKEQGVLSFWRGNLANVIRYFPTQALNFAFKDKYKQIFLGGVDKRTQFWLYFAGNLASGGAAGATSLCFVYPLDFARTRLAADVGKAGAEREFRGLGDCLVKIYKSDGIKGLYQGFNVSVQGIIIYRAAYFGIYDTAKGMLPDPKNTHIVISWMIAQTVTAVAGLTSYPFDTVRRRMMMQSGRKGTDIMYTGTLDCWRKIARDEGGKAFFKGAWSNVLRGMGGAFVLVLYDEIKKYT
The experiment in a line: Inhibition of ANT2 in human HeLa cells assessed as growth inhibition at 50 uM incubated for 5 days by crystal violet staining based assay. The format is cell-based.

For data set [2], the target named is T1, ADP/ATP translocase 2 (Homo sapiens). The experiment in a line: Inhibition of ANT2 in human HeLa cells assessed as cell survival at 50 uM incubated for 5 days by crystal violet staining based assay.
Data set [3] in a line: Cytotoxicity against mouse NIH/3T3 cells assessed as cell survival at 50 uM incubated for 5 days by crystal violet staining based assay. Details: species or system NIH3T3. The note with it: read-out: Survival.

Consider `O=C(CC(=O)C1C(=O)c2ccccc2C1=O)c1ccccc1`, for which, in data set [1], the growth inhibition (GI) was found to be 84%.
For the compound `CC(C)CC(=O)C1C(=O)c2ccccc2C1=O`, the Survival in data set [2] turned out to be 5%. Besides, the viability at 120 h, 50 µM in data set [3] is 40%. Besides, in data set [1], the growth inhibition (GI) came to 79%.
